Measured values from ChEMBL document CHEMBL1201862, “PubChem BioAssay data set” (2004).
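These data come from cells grown in 96-well plates and exposed to compound for 48 hours at five concentrations. Here, GI50 denotes the concentration required for 50% inhibition of growth.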 Active and inactive are the calls of the source. Cut-off read from the data, not from the text of the source: active = GI50 up to about 1.1 µM and inactive = higher.

Assays:
Experiment in all cases: NCI-60 cell line screen, 48 h
[1] = tested on: HOP-92
[2] = tested on: NCI-H23
[3] = tested on: K562
[4] = tested on: OVCAR-4
[5] = tested on: UACC-62
[6] = tested on: M14
[7] = tested on: UACC-257
[8] = tested on: 786-0
[9] = tested on: EKVX
[10] = tested on: A498
[11] = tested on: SK-MEL-2
[12] = tested on: KM12
[13] = tested on: ACHN
[14] = tested on: HOP-62
[15] = tested on: COLO 205
[16] = tested on: Malme-3M
[17] = tested on: RXF 393

Measured: GI50

O=C(c1ccccc1)c1ccc(OCCOc2ccc(Nc3ccccc3)cc2)cc1
inactive: [1] 27.3 µM | [2] 46.8 µM | [3] > 100 µM | [4] 17.7 µM | [5] 63.4 µM | [6] 49.5 µM | [7] 65.8 µM | [8] 25 µM | [9] 74.8 µM | [10] 27.4 µM | [11] 38.3 µM | [12] > 100 µM | [13] 24.3 µM | [14] 23.9 µM | [15] > 100 µM | [16] 19.2 µM | [17] 35.2 µM

O=[N+]([O-])c1ccc(-c2ccc(C3=Nn4c(nnc4-c4ccc(Cl)cc4)SC3)o2)cc1
inactive: [1] 38.5 µM | [2] > 53.2 µM | [3] > 100 µM | [4] > 100 µM | [5] > 100 µM | [6] > 100 µM | [7] > 100 µM | [8] 31.4 µM | [9] > 100 µM | [10] 92.7 µM | [11] 99.3 µM | [12] > 100 µM | [13] 46.6 µM | [14] 31 µM | [15] > 100 µM | [16] > 52.5 µM

CC(=O)CC(N)=O
inactive: [1] > 100 µM | [2] > 100 µM | [3] > 100 µM | [4] > 100 µM | [5] > 100 µM | [6] > 100 µM | [7] > 100 µM | [8] > 100 µM | [9] > 100 µM | [10] > 100 µM | [11] > 100 µM | [12] > 100 µM | [13] > 100 µM | [14] > 100 µM | [15] > 100 µM | [16] > 100 µM | [17] > 100 µM

O=c1ncccn1C1C=C(CO)C(O)C1O (configuration not stated)
inactive: [1] > 50 µM | [2] > 50 µM | [3] > 50 µM | [4] > 50 µM | [6] > 50 µM | [7] > 50 µM | [8] > 50 µM | [9] > 50 µM | [10] > 50 µM | [11] > 50 µM | [12] > 50 µM | [13] > 50 µM | [14] > 50 µM | [15] > 50 µM | [16] > 50 µM

NNC(=O)CCC(=O)Nc1cc(Cl)c(Cl)cc1Cl
inactive: [1] > 100 µM | [2] > 100 µM | [3] > 100 µM | [4] 51.5 µM | [5] > 100 µM | [6] > 100 µM | [7] > 100 µM | [8] > 100 µM | [10] 38.3 µM | [11] > 100 µM | [12] > 100 µM | [13] > 100 µM | [14] > 100 µM | [15] > 100 µM | [16] > 100 µM | [17] > 100 µM

O=C(c1nc2ccccc2nc1O)C(O)c1ccccc1 (configuration not stated)
inactive: [1] 63.7 µM | [2] > 100 µM | [3] 40.3 µM | [4] 95.3 µM | [5] 72.4 µM | [6] > 100 µM | [7] > 100 µM | [8] > 100 µM | [9] 64.6 µM | [10] 39.5 µM | [11] > 100 µM | [12] 54.6 µM | [13] 44.6 µM | [14] > 100 µM | [15] > 100 µM | [16] > 100 µM

Cc1ccc(NC(=O)CC2C(=O)Nc3ccccc3S2(=O)=O)c(C)c1 (configuration not stated)
inactive: [1] 15 µM | [2] 17.8 µM | [3] 4.66 µM | [4] 18.7 µM | [5] 7.26 µM | [6] 11.2 µM | [7] 21.6 µM | [8] 18.3 µM | [9] 42.5 µM | [10] 14.8 µM | [11] 29 µM | [13] 18 µM | [16] 12.9 µM | [17] 17 µM

CC(C)CN1CC(C)C(=O)NC1=O (configuration not stated)
inactive: [1] > 100 µM | [2] > 100 µM | [3] > 100 µM | [4] > 100 µM | [5] > 100 µM | [7] > 100 µM | [8] > 100 µM | [9] > 100 µM | [10] > 100 µM | [11] > 100 µM | [12] > 100 µM | [13] > 100 µM | [14] > 100 µM | [15] > 100 µM | [16] > 100 µM | [17] > 100 µM

NC(=O)CCC(NC(=O)Cc1ccccc1)C(=O)O (configuration not stated)
inactive: [1] 1060 µM | [2] > 2470 µM | [3] > 2470 µM | [4] 1390 µM | [5] > 2470 µM | [6] > 2470 µM | [8] > 2470 µM | [9] > 2470 µM | [10] > 2470 µM | [11] > 2470 µM | [12] > 2470 µM | [14] 1700 µM | [15] > 2470 µM | [16] 1530 µM | [17] 531 µM
